{"source": "patent US9795687B2", "about": "“Modularly assembled small molecules for the treatment of myotonic dystrophy type 1” (The Scripps Research Institute, priority 2013, dated 2017)", "tested_on": "Clcn1 and Serca1 (Atp2a1) alternative splicing in HSA^LR mice", "experiment": "Alternative pre-mRNA splicing in DM1 mouse model (HSA^LR), RT-PCR of vastus muscle", "type": "in vivo", "excerpt": "2H-K4NMe was selected for animal studies based on overall performance in cell-based assays, increased proteolytic stability as compared to 2H-KNH and decreased structural complexity compared to 2H-K4NPr. A mouse model of DM1 has been reported in which 250 rCUG repeats are expressed using an actin promoter (human skeletal actin long repeat, HSA^LR).^24 The presence of these repeats results in dysregulation of alternative splicing in the muscle-specific chloride ion channel (Clcn1) and the sarcoplasmic/endoplasmic reticulum calcium ATPase 1 (Serca1/Atp2a1) pre-mRNAs. Clcn1 exon 7a is excluded ˜100% in mRNA from normal adult mice; DM1 mice have an exclusion rate of ˜50%. After DM1 mice were treated for 7 days with 100 mg/kg/d of 2H-K4NMe, the exclusion rate of exon 7A was restored to 71% (p-value=0.007) (FIGS. 7 and 11). Mis-splicing of Serca1 exon 21 was also partially rescued. The exon 22 inclusion rate is ˜100% in normal adult mice and ˜11.8% in DM1 mice.\nAll experimental procedures, mouse handling, and husbandry were completed in accordance with the Association for Assessment and Accreditation of Laboratory Animal Care. A mouse model for DM1, HSA^LR in line 20b, was used.^24 HSA^LR mice express human skeletal actin RNA with 250 CUG repeats in the 3′ UTR. Age- and gender-matched HSA^LR mice were injected intraperitoncally with 100 mg/kg 2H-K4NMe in water for treatment or 0.9% NaCl for control once per day for 7 days. Mice were sacrificed one day after the last injection, and the vastus muscle was obtained. RNA was extracted from the vastus tissue, and cDNA was synthesized as previously described.^65\nPCR amplification was carried out for 26-30 cycles with the following primer pairs: Clcn1 forward 5′-[…] (SEQ ID NO:5) and reverse 5′-(6FAM)[…] (SEQ ID NO:6); Secral forward 5′-(6FAM)[…] (SEQ ID NO:7) and reverse 5′- […] (SEQ ID NO:8). The PCR products were separated by agarose gel electrophoresis. The gel was scanned with a laser fluorimager (Typhoon, GE Healthcare), and the products were quantified using ImageQuant."}
{"smiles": "C[C@@H](C(=O)N(C)[C@@H](C)C(=O)N(C)[C@@H](C)C(=O)N(C)[C@@H](C)C(=O)N[C@@H](CCCCNC(=O)CCCOc1cccc(-c2nc3cc(-c4nc5cc(N6CCN(C)CC6)ccc5[nH]4)ccc3[nH]2)c1)C(N)=O)N(C)C(=O)CCCOc1cccc(-c2nc3ccc(-c4nc5cc(N6CCN(C)CC6)ccc5[nH]4)cc3[nH]2)c1", "note": "[Compound 2H-K4NMe]", "values": [{"measurement": "effect on alternative splicing of Itgb1 and CapZB mRNAs (not regulated by MBNL1)", "setting": "100 mg/kg/d for 7 days", "value": "did not affect"}, {"measurement": "Serca1 exon 22 inclusion rate", "setting": "100 mg/kg/d for 7 days, DM1 mice ˜11.8%, normal ˜100%", "value": 21.5, "unit": "%"}, {"measurement": "Clcn1 exon 7a exclusion rate", "setting": "100 mg/kg/d intraperitoneally for 7 days, DM1 mice ˜50%, normal ˜100%", "value": 71, "unit": "%"}]}
